According to patent EP3398601A1, “NICOTINAMIDE FOR TREATING DYSLIPIDEMIA” (priority 2017, dated 2018):
“Also recorded” adds a separate entry of the source.

Legend:
Apo(a) = conditions: oral treatment with 1% nicotinic acid in the chow; female tg-Apo(a) mice; cited from earlier work
Lp(a) [1] = conditions: literature values (Carlson, 1989; Kotani, 2017); cited from earlier work
Lp(a) [2] = experiment: Lp(a) plasma levels (Apo(a) ELISA) in transgenic Apo(a) mice given the substance in chow, cross-over design; conditions: for reduction of Lp(a): 1% orally as food supplement, compared to baseline levels
Experimental: In the transgenic Apo(a) mice (tg-Apo(a)) Apo(a) is expressed mainly in female mice.
Levels of Apo(a) were determined by means of ELISA and were expressed as Lp(a) in mg/dl as each molecule Apo(a) binds one molecule of LDL to form Lp(a).

NaPi2b [3] = experiment: Intestinal (ileum) NaPi2b expression, immune fluorescence and RNA, in 5/6 nephrectomized DBA/2 mice; assay type: in vivo, DBA/2 mouse
Experimental: Further, the effect of nicotinamide treatment on intestinal NaPi2b protein expression in a mouse model (DBA/2 mouse) was investigated.
(§1) For this purpose, 5/6 nephrectomized DBA/2 mice were used as model for vascular calcification. The mice were treated with nicotinamide (NA) in a concentration of 600 µg/mL in the drinking water.
Bars between columns indicate significant between groups differences (ANOVA with Tukey Post Test, p<0.05).

[4] = S-phosphate and fractional phosphate elimination in DBA/2 mice; assay type: in vivo; conditions: for fractional phosphate elimination (in words): DBA/2 mice
Experimental: as §1

FGF23 = FGF23 in DBA/2 mice; assay type: in vivo
Experimental: as §1

GPR109A receptor = GPR109A receptor (Homo sapiens, UniProt Q8TDS4); conditions: cited from earlier work
Sequence of GPR109A receptor (Q8TDS4 whole entry): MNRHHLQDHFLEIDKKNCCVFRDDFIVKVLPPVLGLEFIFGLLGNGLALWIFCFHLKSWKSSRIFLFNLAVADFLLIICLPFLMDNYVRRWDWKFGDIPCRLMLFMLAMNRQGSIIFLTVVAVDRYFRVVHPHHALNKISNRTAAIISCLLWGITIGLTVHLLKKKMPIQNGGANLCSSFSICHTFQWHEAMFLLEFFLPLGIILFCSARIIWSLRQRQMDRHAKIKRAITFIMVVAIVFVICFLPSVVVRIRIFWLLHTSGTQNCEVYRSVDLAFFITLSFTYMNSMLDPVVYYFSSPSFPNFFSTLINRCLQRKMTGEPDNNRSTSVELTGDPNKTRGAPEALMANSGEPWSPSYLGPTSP

[5] = given in combination with the phosphate binder sevelamer; cited from earlier work
NaPi2b [6] = conditions: intraperitoneal administration; cited from earlier work
[7] = intraperitoneal administration; cited from earlier work
NaPi2b [8] = experiment: Renal NaPi2b protein expression, immune fluorescence, in 5/6 nephrectomized DBA/2 mice; conditions: 5/6 nephrectomized DBA/2 mice (CKD); Fig. 4

Compound	reduction in plasma Apo(a) protein (Apo(a))	reduces Lp(a) (Lp(a) [1])	reduction of Lp(a) (Lp(a) [2]; after two weeks of treatment)	reduction of Lp(a) (Lp(a) [2]; after week 1)	NaPi2b-RNA of the small intestine (in words) (NaPi2b [3]; DBA/2 mice, NA 600 µg/mL in the drinking water)	fractional phosphate elimination (in words) [4]	S-phosphate (in words) ([4]; effect only in healthy DBA/2 mice with high phosphate diet (phosphorus content 1.03 % (w/w)), NA 600 µg/mL in the drinking water)	FGF23 (in words) (FGF23)	binding to GPR109A receptor (in words) (GPR109A receptor)	treatment of hyperphosphatemia (in words) [5]	expression of NaPi2b (in words) (NaPi2b [6])	gastrointestinal absorption of phosphate (in words) [7]	Lp(a) plasma levels lower compared to nicotinic acid (Lp(a) [2]; after 2 weeks of treatment, Fig. 1 legend)	intestinal NaPi2b protein / cotransporter content of the small intestine (in words) (NaPi2b [3]; 5/6 nephrectomized DBA/2 mice, NA 600 µg/mL in the drinking water, Fig. 3)	intestinal NaPi2b protein / cotransporter content of the small intestine (in words) (NaPi2b [3]; 5/6 nephrectomized DBA/2 mice, NA 600 µg/mL in the drinking water, Fig. 3, listed as Mg)	intestinal NaPi2b protein / cotransporter content of the small intestine (in words) (NaPi2b [3]; 5/6 nephrectomized DBA/2 mice, NA 600 µg/mL in the drinking water, Fig. 3, listed as magnesium carbonate (Mg))	increase of cotransporter expression (intestinal NaPi2b) (NaPi2b [3]; 5/6 nephrectomized DBA/2 mice, treatment for 7 weeks, Fig. 3)	renal NaPi2b protein expression (in words) (NaPi2b [8])
O=C(O)c1cccnc1 [nicotinic acid]	43%	up to 35%	50%	37%														
NC(=O)c1cccnc1 [nicotinamide]			77%	67%	did not show any influence	reduction	decrease	reduction	does not bind or otherwise affect	ineffective	blocks	inhibits	more than 50%					
O=C(O)O [magnesium carbonate]						reduction		reduction						strongly enhances	notable increase	strong enhancement	10 -fold	no significant difference compared to baseline; also recorded: no significant effects
